From patent publication US20220220373A1, “FLUORESCENT PROBES FOR MONOACYLGLYCEROL LIPASE (MAGL)” (Hoffmann-La Roche Inc., priority 2019, published 2022)

target: T1, MAGL (Homo sapiens, UniProt Q99685); assay: 2-AG assay (MAGL inhibitory activity, hydrolysis of 2-arachidonoylglycerol followed by mass spectrometry); assay type: biochemical; conditions: 50 pM MAGL, 8 μM 2-arachidonoylglycerol, 15 min pre-incubation, 30 min incubation at RT
T1 sequence (Q99685 1-303): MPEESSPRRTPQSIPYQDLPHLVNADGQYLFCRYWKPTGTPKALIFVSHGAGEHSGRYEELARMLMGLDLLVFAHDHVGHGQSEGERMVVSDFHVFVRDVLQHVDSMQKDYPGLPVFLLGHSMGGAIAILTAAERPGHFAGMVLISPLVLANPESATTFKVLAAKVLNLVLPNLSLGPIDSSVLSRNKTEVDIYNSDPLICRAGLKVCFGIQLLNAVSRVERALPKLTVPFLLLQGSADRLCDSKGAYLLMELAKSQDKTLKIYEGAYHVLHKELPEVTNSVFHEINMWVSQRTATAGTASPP
Procedure: Compounds were profiled for MAGL inhibitory activity by determining the enzymatic activity by following the hydrolysis of the natural substrate 2-arachidonoylglycerol (2-AG) resulting in arachidonic acid, which can be followed by mass spectrometry. This assay is hereinafter abbreviated “2-AG assay”.
The 2-AG assay was carried out in 384 well assay plates (PP, Greiner Cat#784201) in a total volume of 20 μL. Compound dilutions were made in 100% DMSO (VWR Chemicals 23500.297) in a polypropylene plate in 3-fold dilution steps to give a final concentration range in the assay from 12.5 μM to 0.8 pM. […] compound dilutions (100% DMSO) were added to 9 μL MAGL in assay buffer (50 mM TRIS (GIBCO, 15567-027), 1 mM EDTA (Fluka, 03690-100 mL), 0.01% (v/v) Tween. After shaking, the plate was incubated for 15 min at RT. To start the reaction, 10 μL 2-arachidonoylglycerol in assay buffer was added. The final concentrations in the assay was 50 pM MAGL and 8 μM 2-arachidonoylglyerol. After shaking and 30 min incubation at RT, the reaction was quenched by the addition of […] of ACN containing 4 μM of d8-arachidonic acid. The amount of arachidonic acid was traced by an online SPE system (Agilent Rapidfire) coupled to a triple quadrupole mass spectrometer (Agilent 6460). A C18 SPE cartridge (G9205A) was used in an ACN/water liquid setup. The mass spectrometer was operated in negative electrospray mode following the mass transitions 303.1→259.1 for arachidonic acid and 311.1→267.0 for d8-arachidonic acid. The activity of the compounds was calculated based on the ratio of intensities [arachidonic acid/d8-arachidonic acid].

Structure (SMILES)	IC50 [nM]
NCCOCCOCCOCCC(=O)NCCOc1cccc([C@H](c2ccccc2)C2CCN(C(=O)N3CC[C@@H]4OCC(=O)N[C@@H]4C3)CC2)c1 (single isomer, unassigned) [Example 20, N-[2-[3-[(S or R)-[1-1(4aR,8aS)-3-Oxo-4,4a,5,7,8,8a-hexahydropyrido[4,3-b]11,4]oxazine-6-carbonyl]-4-piperidyfl-phenyl-methyl]phenoxy]ethyl]-3-[2-[2-(2-aminoethoxy)ethoxy]ethoxy]propanamide]	11.4
O=C(CCOCCOCCOCCNc1ccc([N+](=O)[O-])c2nonc12)NCCOc1cccc(C(c2ccccc2)C2CCN(C(=O)N3CC[C@@H]4OCC(=O)N[C@@H]4C3)CC2)c1 (stereo partly drawn) [Example 1, 3-(2-(2-(2-((7-Nitrobenzo[c][1,2,5]oxadiazol-4-yl)amino)ethoxy)ethoxy)ethoxy)-N-(2-(3-((1-((4aR,8aS)-3-oxooctahydro-2H-pyrido[4,3-b][1,4]oxazine-6-carbonyl)piperidin-4-yl)(phenyl)methyl)phenoxy)ethyl)propanamide]	1
O=C(CCOCCNc1ccc([N+](=O)[O-])c2nonc12)NCCOc1cccc(C(c2ccccc2)C2CCN(C(=O)N3CC[C@@H]4OCC(=O)N[C@@H]4C3)CC2)c1 (stereo partly drawn) [Example 2]	1.2
O=C(CCOCCOCCNc1ccc([N+](=O)[O-])c2nonc12)NCCOc1cccc(C(c2ccccc2)C2CCN(C(=O)N3CC[C@@H]4OCC(=O)N[C@@H]4C3)CC2)c1 (stereo partly drawn) [Example 3, 3-(2-(2-((7-Nitrobenzo[c][1,2,5]oxadiazol-4-yl)amino)ethoxy)ethoxy)-N-(2-(3-((1-((4aR,8aS)-3-oxooctahydro-2H-pyrido[4,3-b][1,4]oxazine-6-carbonyl)piperidin-4-yl)(phenyl)methyl)phenoxy)ethyl)propanamide]	2.1

Next, values leading:

IC50 [nM]	Structure (SMILES)
0.3	O=C(CCOCCNC(=O)CCc1ccc2n1[B-](F)(F)[N+]1=C(c3ccc[nH]3)C=CC1=C2)NCCOc1cccc(C(c2ccccc2)C2CCN(C(=O)N3CC[C@@H]4OCC(=O)N[C@@H]4C3)CC2)c1 (single isomer, unassigned) [Example 21, N-[2-[3-[2-[3-[(S or R)-[1-[(4aR,8aS)-3-oxo-4,4a,5,7,8,8a-hexahydropyrido[4,3-b][1,4]oxazine-6-carbonyl]-4-piperidyl]-phenyl-methyl]phenoxy]ethylamino]-3-oxo-propoxy]ethyl]-3-12,2-difluoro-12-(1H-pyrrol-2-yl)-3-aza-1-azonia-2-boranuidatricyclo[7.3.0.03,7]dodeca-1(12),4,6,8,10-pentaen-4-yl]propanamide]
0.4	O=C(CCOCCOCCOCCNc1ccc([N+](=O)[O-])c2nonc12)NCCOc1cccc([C@H](c2ccccc2)C2CCN(C(=O)N3CC[C@@H]4OCC(=O)N[C@@H]4C3)CC2)c1 (single isomer, unassigned) [Example 22, N-[2-[3-[(S or R)-11-1(4aR,8aS)-3-oxo-4,4a,5,7,8,8a-hexahydropyrido[4,3-b][1,4]oxazine-6-carbonyl]-4-piperidyl]-phenyl-methyl]phenoxy]ethyl]-3-[2-[2-[2-[(4-nitro-2,1,3-benzoxadiazol-7-yl)amino]ethoxy]ethoxy]ethoxy]propanamide]
5.8	CC(C)(C)OC(=O)NCCOc1cccc(C(=C2CCN(C(=O)N3CC[C@@H]4OCC(=O)N[C@@H]4C3)CC2)c2ccccc2)c1 [Example 23, tert-Butyl (2-(3-((1-((4aR,8aS)-3-oxooctahydro-2H-pyrido[4,3-b][1,4]oxazine-6-carbonyl)piperidin-4-ylidene)(phenyl)methyl)phenoxy)ethyl)carbamate]
5.5	O=C1CO[C@H]2CCN(C(=O)N3CCC(=C(c4ccccc4)c4cccc(OCCNc5ccc([N+](=O)[O-])c6nonc56)c4)CC3)C[C@H]2N1 [Example 24]
13	CC(C)(C)OC(=O)NCCOc1ccc(C(=C2CCN(C(=O)N3CC[C@@H]4OCC(=O)N[C@@H]4C3)CC2)c2ccccc2)cc1 [Example 25, tert-Butyl (2-(4-((1-((4aR,8aS)-3-oxooctahydro-2H-pyrido[4,3-b][1,4]oxazine-6-carbonyl)piperidin-4-ylidene)(phenyl)methyl)phenoxy)ethyl)carbamate]
